Measurements from patent US20090005407A1, “PARTICULATE (3'-CHLOROBIPHENYL-4-YL)(1-(PYRIMIDIN-2-YL)PIPERIDIN-4-YL)METHANONE AND METHODS OF ITS USE” (priority 2007, published 2009).

Tests used:
[1] = water solubility; assay type: physicochemical
[2] = system: mice; details: administered to mice; see U.S. Ser. Nos. 11/433,057 and 11/433,626; cited from earlier work

water solubility [1]: poorly water soluble
Structure (SMILES): O=C(c1ccc(-c2cccc(Cl)c2)cc1)C1CCN(c2ncccn2)CC1 [(3′-chlorobiphenyl-4-yl)(1-(pyrimidin-2-yl)piperidin-4-yl)methanone]
effect on learning and memory [2]: increase learning and memory
